Test results from patent publication US12043600B2, “Microbiocidal compounds” (SYNGENTA CROP PROTECTION AG, priority 2018, dated 2024).

Legend:
[1] = test system: Botryotinia fuckeliana (Botrytis cinerea); test: Botryotinia fuckeliana (Botrytis cinerea)/Liquid Culture (Gray Mould); assay type: cell-based; conditions: liquid culture, compared to untreated control
Method: Conidia of the fungus from cryogenic storage are directly mixed into nutrient broth (Vogels broth). After placing a (DMSO) solution of test compound into a microtiter plate (96-well format), the nutrient broth containing the fungal spores is added.

[2] = test system: Glomerella lagenarium (Colletotrichum lagenarium); test: Glomerella lagenarium (Colletotrichum lagenarium)/Liquid Culture (Anthracnose); assay type: cell-based; conditions: Colletotrichum orbiculare, liquid culture, compared to untreated control
[3] = test system: Monographella nivalis (Microdochium nivale); test: Monographella nivalis (Microdochium nivale)/Liquid Culture (Foot Rot Cereals); assay type: cell-based; conditions: liquid culture, compared to untreated control
In short: (§1)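 PDB + cryo-stored conidia; compound in DMSO pre-plated, spore broth added on top.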

[4] = test system: Mycosphaerella arachidis (Cercospora arachidicola); test: Mycosphaerella arachidis (Cercospora arachidicola)/Liquid Culture (Early Leaf Spot); assay type: cell-based; conditions: liquid culture, compared to untreated control
In short: as §1

[5] = test system: Phytophthora infestans; test: whole plant or invertebrate; assay type: in vivo; conditions: in Solanum lycopersicum, foliar, read-out: control of Phytophthora infestans
[6] = test system: Plasmopara viticola; test: whole plant or invertebrate; assay type: in vivo; conditions: foliar, read-out: control of Plasmopara viticola
[7] = test system: Puccinia recondita f. sp. tritici; test: Puccinia recondita f. sp. tritici/Wheat/Leaf Disc Curative (Brown Rust); assay type: in vivo; conditions: foliar, wheat leaf disc curative, compared to untreated control
In short: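 Formulated compound, diluted in water, is applied to inoculated wheat cv. Kanzler leaf segments on agar one day post-inoculation (pre-incubation dark, 19° C, 75% rh). After 6-8 days at 19° C, 75% rh and 12 h/12 h light, activity is rated as percent disease control relative to untreated segments.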

[8] = test system: Puccinia recondita f. sp. tritici; test: Puccinia recondita f. sp. tritici/Wheat/Leaf Disc Preventative (Brown Rust); assay type: in vivo; conditions: foliar, 200 ppm, wheat leaf disc preventative, compared to untreated control, read-out: control of Puccinia recondita f. sp. tritici
[9] = test system: Thanatephorus cucumeris (Rhizoctonia solani); test: Thanatephorus cucumeris (Rhizoctonia solani)/Liquid Culture (Foot Rot, Damping-Off); assay type: cell-based; conditions: liquid culture, compared to untreated control
Method: Mycelia fragments of a newly grown liquid culture of the fungus are directly mixed into nutrient broth (PDB potato dextrose broth). After placing a (DMSO) solution of the test compounds into a microtiter plate (96-well format), the nutrient broth containing the fungal material is added.

[10] = test system: Sclerotinia sclerotiorum; test: Sclerotinia sclerotiorum/Liquid Culture (Cottony Rot); assay type: cell-based; conditions: liquid culture, compared to untreated control
Method: Mycelia fragments of a newly grown liquid culture of the fungus are directly mixed into nutrient broth (PDB potato dextrose broth). After placing a (DMSO) solution of test compound into a microtiter plate (96-well format) the nutrient broth containing the fungal material is added.

[11] = test system: Mycosphaerella graminicola (Septoria tritici); test: Mycosphaerella graminicola (Septoria tritici)/Liquid Culture (Septoria Blotch); assay type: cell-based; conditions: Zymoseptoria tritici; 20 ppm; liquid culture; compared to untreated control
In short: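 Results given as % disease control: test compound in DMSO was placed in wells first, then potato dextrose broth carrying cryostored fungal conidia was added.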

[12] = test system: Blumeria graminis f. sp. tritici (Erysiphe graminis f. sp. tritici); test: Blumeria graminis f. sp. tritici/Wheat/Leaf Disc Preventative (Powdery Mildew on Wheat); assay type: in vivo; conditions: foliar, wheat leaf disc preventative, compared to untreated control
In short: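 Preventative leaf-disc test: percent disease control versus untreated leaf segments read 6-8 days post-application. Compound spray applied to wheat cv. Kanzler segments on agar one day before shaking infected plants over them; incubation at 20° C and 60% rh, 24 h darkness then 12 h light/12 h dark cycles.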

[13] = test system: Phaeosphaeria nodorum (Septoria nodorum); test: Phaeosphaeria nodorum (Septoria nodorum)/Wheat/Leaf Disc Preventative (Glume Blotch); assay type: in vivo; conditions: Parastagonospora nodorum, foliar, wheat leaf disc preventative, compared to untreated control
In short: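 Preventative test: compound spray first, then spore inoculation after 2 days on cv. Kanzler wheat leaf segments. Incubation in a climate cabinet at 20 °C and 75% rh under a 12 h light/12 h dark cycle. Activity rated as % control relative to untreated discs at 5–7 days post-application.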

[14] = test system: Magnaporthe grisea (Pyricularia oryzae); test: whole plant or invertebrate; assay type: in vivo; conditions: foliar, read-out: control of Magnaporthe grisea
[15] = test system: Phakopsora pachyrhizi; test: Phakopsora pachyrhizi/Soybean/Preventative (Soybean Rust); assay type: in vivo; conditions: foliar, 288 h, 200 ppm, soybean leaf disc preventative, compared to untreated control, read-out: control of Phakopsora pachyrhizi
[16] = test system: Pyrenophora teres; test: Pyrenophora teres/Barley/Leaf Disc Preventative (Net Blotch); assay type: in vivo; conditions: foliar, 200 ppm, barley leaf disc preventative, compared to untreated control, read-out: control of Pyrenophora teres
In short: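 Preventative leaf-disc test: inoculation with fungal spores took place 2 days after spraying segments of barley cv. Hasso, placed on agar, with water-diluted formulated compound. Read-out is % disease control per compound.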

[17] = test system: Alternaria solani; test: Alternaria solani/Tomato/Leaf Disc (Early Blight); assay type: in vivo; conditions: foliar, tomato leaf disc, compared to untreated control
In short: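 Protective leaf-disc test: compound sprayed onto tomato cv. Baby disks, spore inoculation following after 2 days. Disks kept at 80% rh, 12/12 h light/dark, 23° C. day and 21° C. night; activity read as percent disease control relative to untreated checks 5-7 days post-application.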

[18] = Photostability assay (Atlas Suntest); assay type: physicochemical; conditions: Suntest 750 W/m^2, spotted on microscope slides
In short: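 Compound (2 μl of 1 g/L methanol stock) spotted on glass slides and irradiated at 750 W/m^2 in a Suntest. Slides were washed with H2O:MeCN:THF 50:40:10 and analysed by reverse-phase UPLC-PDA; peak area versus initial gave % parent remaining at 3 hours.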

| SMILES | inhibition of growth at 20 ppm [1] [%] | inhibition of growth at 20 ppm [2] [%] | inhibition of growth at 20 ppm [3] [%] | inhibition of growth at 20 ppm [4] [%] | pest or weed control at 200 ppm [5] [%] | pest or weed control at 200 ppm [6] [%] | pest or weed control at 200 ppm [7] [%] | pest or weed control at 200 ppm [8] [%] | inhibition of growth at 20 ppm [9] [%] | inhibition of growth at 20 ppm [10] [%] | inhibition of growth at 20 ppm [11] [%] | melting point [°C] | pest or weed control at 200 ppm [12] [%] | pest or weed control at 200 ppm [13] [%] | pest or weed control at 200 ppm [14] [%] | pest or weed control at 200 ppm [15] [%] | pest or weed control at 200 ppm [16] [%] | pest or weed control at 200 ppm [17] [%] | % Parent Remaining @ 3 hrs [18] [%] |
| --- | --- | --- | --- | --- | --- | --- | --- | --- | --- | --- | --- | --- | --- | --- | --- | --- | --- | --- | --- |
| CO/C=C(\Oc1cc(-n2ccc(C(C)C(F)(F)F)n2)ccc1C)C(=O)OC (stereo not drawn) [Compound E-23, methyl (Z)-3-methoxy-2-[2-methyl-5-[3-(2,2,2-trifluoro-1-methyl-ethyl)pyrazol-1-yl]phenoxy]prop-2-enoate] | ≥ 80 | ≥ 80 | ≥ 80 | ≥ 80 | ≥ 80 | ≥ 80 | ≥ 80 | ≥ 80 | ≥ 80 | ≥ 80 | ≥ 80 | 119 to 122 | – | – | – | – | – | – | – |
| C=C(c1ccn(-c2ccc(C)c(O/C(=C\OC)C(=O)OC)c2)n1)C(F)(F)F [Compound E-24, methyl (Z)-3-methoxy-2-[2-methyl-5-[3-[1-(trifluoromethyl)vinyl]pyrazol-1-yl]phenoxy]prop-2-enoate] | ≥ 80 | ≥ 80 | ≥ 80 | ≥ 80 | ≥ 80 | ≥ 80 | ≥ 80 | ≥ 80 | ≥ 80 | ≥ 80 | ≥ 80 | – | ≥ 80 | ≥ 80 | ≥ 80 | – | – | – | – |
| CO/C=C(\Oc1cc(-n2ccc(C(C)C)n2)cc(C)c1C)C(=O)OC [Compound E-20, methyl (Z)-2-[5-(3-isopropylpyrazol-1-yl)-2,3-dimethyl-phenoxy]-3-methoxy-prop-2-enoate] | – | ≥ 80 | ≥ 80 | ≥ 80 | ≥ 80 | ≥ 80 | ≥ 80 | ≥ 80 | – | ≥ 80 | ≥ 80 | 103 to 105 | – | ≥ 80 | ≥ 80 | ≥ 50 | – | – | – |
| CO/C=C(\Oc1cc(-n2ccc(C(F)(F)C(F)(F)F)n2)ccc1C)C(=O)OC [Compound E-69, methyl (Z)-3-methoxy-2-[2-methyl-5-[3-(1,1,2,2,2-pentafluoroethyl)pyrazol-1-yl]phenoxy]prop-2-enoate] | – | ≥ 80 | ≥ 80 | ≥ 80 | – | ≥ 80 | ≥ 80 | ≥ 80 | ≥ 80 | ≥ 80 | ≥ 80 | 117 to 120 | ≥ 80 | – | ≥ 80 | – | – | – | – |
| CO/C=C(\Oc1cc(-n2ncc(C3CCCCC3)n2)ccc1C)C(=O)OC [Compound F-7, methyl (Z)-2-[5-(4-cyclohexyltriazol-2-yl)-2-methyl-phenoxy]-3-methoxy-prop-2-enoate] | – | ≥ 80 | ≥ 80 | ≥ 80 | – | ≥ 80 | ≥ 80 | ≥ 80 | – | ≥ 80 | ≥ 80 | 120 to 122 | ≥ 80 | ≥ 80 | ≥ 80 | – | ≥ 80 | – | – |
| CO/C=C(\Oc1cc(-n2ccc(C3(F)CC3)n2)ccc1C)C(=O)OC [Compound E-67, methyl (Z)-2-[5-[3-(1-fluorocyclopropyl)pyrazol-1-yl]-2-methyl-phenoxy]-3-methoxy-prop-2-enoate] | – | ≥ 80 | ≥ 80 | ≥ 80 | ≥ 80 | ≥ 80 | ≥ 80 | ≥ 80 | ≥ 80 | ≥ 80 | ≥ 80 | 128 to 131 | ≥ 80 | ≥ 80 | – | – | ≥ 80 | ≥ 80 | 37 |
| CO/C=C(\Oc1cc(-n2ccc(C3CCCCC3)n2)ccc1C)C(=O)OC [Compound E-36, methyl (Z)-2-[5-(3-cyclohexylpyrazol-1-yl)-2-methyl-phenoxy]-3-methoxy-prop-2-enoate] | ≥ 80 | ≥ 80 | ≥ 80 | ≥ 80 | ≥ 80 | ≥ 80 | ≥ 80 | ≥ 80 | ≥ 80 | ≥ 80 | ≥ 80 | 85 to 89 | – | ≥ 80 | ≥ 80 | – | ≥ 80 | ≥ 80 | – |
